According to US6479505B1, “6-arylphenanthridines with PDE-IV inhibiting activity” (Altana Pharma AG, priority 1999, dated 2002):

Experiments:
PDE4 = experiment: Inhibition of PDE4 activity (method of Bauer and Schwabe, microtiter plates); type: biochemical; settings: inhibitory concentration as −log IC50 (mol/l)
Description: The activity test was carried out according to the method of Bauer and Schwabe, which was adapted to microtiter plates (Naunyn-Schmiedeberg's Arch. Pharmacol. 1980, 311, 193-198). The PDE reaction takes place in the first step here. In a second step, the resulting 5′-nucleotide is cleaved by a 5′-nucloetidase of the snake venom of Crotalus atrox to the uncharged nucleoside. In the third step, the nucleoside is separated from the remaining charged substrate on ion-exchange columns. The columns are eluted directly into minivials, into which 2 ml of scintillator fluid are additionally added, for counting using 2 ml of 30 mM ammonium formate (pH 6.0).
The inhibitory values determined for the compounds according to the invention [inhibitory concentration as −log IC50 (mol/l/)] follow from the following Table A, in which the numbers of the compounds correspond to the numbers of the examples.

melting point	Compound	−log IC50 (PDE4)
–	COc1cc2c(cc1OC)[C@@H]1CCCC[C@@H]1N=C2c1ccc2nc(C)[nH]c2c1 [Compound 10, (−)-cis-8,9-Dimethoxy-6-(2-methyl-3H-benzimidazol-5-yl)-1,2,3,4,4a,10b-hexahydrophenanthridine]	6.83
–	COc1cc2c(cc1OC)[C@@H]1CCCC[C@@H]1N=C2c1ccc2ncccc2c1 [Compound 2, (−)-cis-8,9-Dimethoxy-6-quinolin-6-yl-1,2,3,4,4a,10b-hexahydrophenanthridine]	7.23
–	COc1cc2c(cc1OC)[C@@H]1CCCC[C@@H]1N=C2c1ccc(OC(F)F)c2oc(C(C)C)cc12 [Compound 11, (−)-cis-6-[7-Difluoromethoxy-2-isopropylbenzofuran-4-yl]-8,9-dimethoxy-1,2,3,4,4a,10b-hexahydrophenanthridine]	8.00
213 to 214.5 °C	COc1cc2c(cc1OC)[C@@H]1CCCC[C@@H]1N=C2c1ccc2c(c1)C(=O)c1ccccc1C2=O [Compound 8, (−)-cis-8,9-Dimethoxy-6-(anthraquinon-2-yl)-1,2,3,4,4a,10b-hexahydrophenanthridine]	8.00
–	COc1cc2c(cc1OC)[C@@H]1CCCC[C@@H]1N=C2c1ccc2[nH]cnc2c1 [Compound 9, (−)-cis-6-(1H-Benzimidazol-5-yl)-8,9-dimethoxy-1,2,3,4,4a,10b-hexahydrophenanthridine]	6.76
213 to 214 °C	COc1cc2c(cc1OC)[C@@H]1CCCC[C@@H]1N=C2c1ccc2[nH]nnc2c1 [Compound 4, (−)-cis-6-(1H-Benzotriazol-5-yl)-8,9-dimethoxy-1,2,3,4,4a,10b-hexahydrophenanthridine]	7.47
–	COc1cc2c(cc1OC)[C@@H]1CCCC[C@@H]1N=C2c1ccc2c(c1)OCO2 [Compound 1, (−)-cis-6-Benzo[1,3]dioxol-5-yl-8,9-dimethoxy-1,2,3,4,4a,10b-hexahydrophenanthridine]	7.28
–	COc1cc2c(cc1OC)[C@@H]1CCCC[C@@H]1N=C2c1ccc2c(c1)C(=O)c1ccccc1-2.Cl [Compound 7, (+)-cis-8,9-Dimethoxy-6-(fluoren-9-on-2-yl)-1,2,3,4,4a,10b-hexahydrophenanthridine hydrochloride]	7.85
–	COc1cc2c(cc1OC)[C@@H]1CCCC[C@@H]1N=C2c1ccc2c(c1)OCCO2 [Compound 3, (−)-cis-8,9-Dimethoxy-6-(2,3-dihydrobenzo[1,4]dioxin-6-yl)-1,2,3,4,4a,10b-hexahydrophenanthridine]	7.21
–	COc1cc2c(cc1OC)[C@@H]1CCCC[C@@H]1N=C2c1ccc2c(c1)S(=O)(=O)c1ccccc1C2=O [Compound 6, (−)-cis-8,9-Dimethoxy-6-(10,10-dioxothioxanthen-9-on-3-yl)-1,2,3,4,4a,10b-hexahydro-phenanthridine]	8.39
–	COc1cc2c(cc1OC)[C@@H]1CCCC[C@@H]1N=C2c1ccc2ccccc2c1 [Compound 5, (−)-cis-8,9-Dimethoxy-6-naphthalen-2-yl-1,2,3,4,4a,10b-hexahydrophenanthridine]	7.63
